According to patent US20240165152A1, “COMPOSITIONS AND METHODS FOR ACTIVATING NK CELLS” (The Regents of the University of California, priority 2017, published 2024):

How the values were obtained:
OSCCs = test: Cell death of OSCCs after chemotherapeutic drugs; type: cell-based, human; conditions: patient-derived differentiated oral tumor
OSCSCs = test: Cell death (PI staining) of OSCSCs differentiated with NK supernatants after chemotherapeutic drugs; type: cell-based, human
Procedure: FIG. 67A-FIG. 67B show CDDP or Paclitaxel with and without NAC induce significant cell death in OSCSCs differentiated with NK-supernatants and not in poorly-differentiated tumors. Highly purified NK cells were treated with the combination of IL-2 (1000 U/mL) and anti-CD16 mAb ([…]) for 18 hours, after which the NK supernatants were added to OSCSCs in the presence of anti-TNF-a (1:100) and anti-IFN-g (1:100) for a period of 5 days. Thereafter, OSCSCs were detached and treated with/without Cisplatin for 18-24 hours. The viability of OSCSCs was then determined using PI staining and flow cytometric analysis. One of 3 representative experiments is shown in this figure (FIG. 67A). OSCSCs were treated with the supernatants from NK cells as described in FIG. 67A. Afterwards, tumors were detached and treated with/without NAC ([…]) for 24 hours, followed by treatment with Paclitaxel for 18-24 hours. OSCSCs viability was determined by PI staining and flow cytometric analysis. One of 3 representative experiments is shown in this figure (FIG. 67B).
Staining was performed by labeling the cells with antibodies or propidium iodide, as described previously. The cells were washed twice with ice-cold PBS containing 1% BSA. Predetermined optimal concentrations of specific human monoclonal antibodies were added to 1×10^4 cells in 50 pl of cold-BSA and cells were incubated on ice for 30 min. Thereafter cells were washed in cold PBS-BSA and brought to 500 pl with PBS-BSA. For cell death assay 1×10^4 cells in 50 pl of cold-BSA were stained with 8 µg/ml propidium iodide and cells were incubated on ice for 10 min, and brought to 500 pl with PBS-BSA. Flow cytometry analysis was performed using Beckman 485 Coulter Epics XL cytometer (Brea, CA) and results were analyzed in FlowJo vX software (Ashland, OR).
NK cells were treated with a combination of anti-CD16 monoclonal antibody (3 pg/mL) and IL-2 (1,000 U/mL) for 18 hours before supernatants were removed and used for differentiation experiments. The amounts of IFN-y produced by activated NK cells were measured with IFN-γ ELISA (Biolegend, CA, USA). […]

SMILES | cell death of OSCCs (OSCCs) | cell death of OSCSCs differentiated with NK supernatants (OSCSCs)
[NH2][Pt]([NH2])([Cl])[Cl] [CDDP, Cisplatin] | higher cell death | significant susceptibility
CC(=O)N[C@@H](CS)C(=O)O [NAC] |  | significantly increased
CC(=O)O[C@H]1C(=O)[C@@]2(C)[C@H]([C@H](OC(=O)c3ccccc3)[C@]3(O)C[C@H](OC(=O)[C@H](O)[C@@H](NC(=O)c4ccccc4)c4ccccc4)C(C)=C1C3(C)C)[C@]1(OC(C)=O)CO[C@@H]1C[C@@H]2O [paclitaxel] |  | higher cell death
